The results in this text go back to patent publication US20070010671A1, “Novel quinazoline derivatives and methods of treatment related to the use thereof” (priority 2003, published 2007).

Molecules are shown by their SMILES.

This test has as its target MCH receptor (Homo sapiens, UniProt Q99705). Briefly: High throughput functional screening FLIPR/FDSS6000: inhibition of MCH-evoked intracellular Ca2+ changes. It counts as cell-based. The note with it: class by percent of control at 10^-7 M or IC50. The essentials:
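Antagonism was measured as inhibition of calcium responses to 50 nM MCH, monitored 290 s at ex 488/em 530 nm on FLIPR or FDSS6000. Beforehand, cells bearing a constitutively active MCH receptor received Fluo4-AM (4 μM, 1 h, 37 °C) with probenecid, and test compound for 3 min.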

Consider `CN(C)c1nc(N[C@H]2CC[C@@H](CNC(=O)NCc3ccc(Br)cc3)CC2)nc2ccccc12` [compound 544], for which the class is 3 (Class 3: The value of percent of control at 10^−7 M was more than 60% or the value of IC50 was more than 200 nM.).
The value for `CN(C)c1nc(N[C@H]2CC[C@@H](CNC(=O)Nc3ccc(Cl)cc3C(F)(F)F)CC2)nc2ccccc12` [compound 545, N-[4-chloro-2-(trifluoromethyl)phenyl]-N′-[(cis-4-{[4-(dimethylamino)quinazolin-2-yl]amino}cyclohexyl)methyl]urea] was 1 (Class 1: The value of percent of control at 10^−7 M was less than 40% or the value of IC50 was less than 50 nM.).
Take `Cc1cc(Cl)ccc1NC(=O)NC[C@H]1CC[C@@H](Nc2nc(N(C)C)c3ccccc3n2)CC1` [compound 546]: the class was 2 (Class 2: The value of percent of control at 10^−7 M was from 40% to 60% or the value of IC50 was from 50 nM to 200 nM.).
Turning to `CN(C)c1nc(N[C@H]2CC[C@@H](CNC(=O)Nc3ccc(Cl)cc3[N+](=O)[O-])CC2)nc2ccccc12` [compound 547], the class is 3 (Class 3: The value of percent of control at 10^−7 M was more than 60% or the value of IC50 was more than 200 nM.).
Then `CN(C)c1nc(N[C@H]2CC[C@@H](CNC(=O)Nc3ccc(Cl)c(C(F)(F)F)c3)CC2)nc2ccccc12` [compound 548], with 3 (Class 3: The value of percent of control at 10^−7 M was more than 60% or the value of IC50 was more than 200 nM.); and `CN(C)c1nc(N[C@H]2CC[C@@H](CNC(=O)Nc3ccc(C#N)cc3)CC2)nc2ccccc12` [compound 549, N-(4-cyanophenyl)-N′-[(cis-4-{[4-(dimethylamino)quinazolin-2-yl]amino}cyclohexyl)methyl]urea], with 1 (Class 1: The value of percent of control at 10^−7 M was less than 40% or the value of IC50 was less than 50 nM.).
Then `CCOc1ccc(NC(=O)NC[C@H]2CC[C@@H](Nc3nc(N(C)C)c4ccccc4n3)CC2)cc1` [compound 550], with 3 (Class 3: The value of percent of control at 10^−7 M was more than 60% or the value of IC50 was more than 200 nM.); and `CN(C)c1nc(N[C@H]2CC[C@@H](CNC(=O)Nc3ccc(F)cc3[N+](=O)[O-])CC2)nc2ccccc12` [compound 551, N-[(cis-4-{[4-(dimethylamino)quinazolin-2-yl]amino}cyclohexyl)methyl]-N′-(4-fluoro-2-nitrophenyl)urea], with 2 (Class 2: The value of percent of control at 10^−7 M was from 40% to 60% or the value of IC50 was from 50 nM to 200 nM.).
Then `CN(C)c1nc(N[C@H]2CC[C@@H](CNC(=O)Nc3ccc(F)c(C(F)(F)F)c3)CC2)nc2ccccc12` [compound 552], with 3 (Class 3: The value of percent of control at 10^−7 M was more than 60% or the value of IC50 was more than 200 nM.); and `CN(C)c1nc(N[C@H]2CC[C@@H](CNC(=O)NCc3ccc(F)cc3)CC2)nc2ccccc12` [compound 553, N-[(cis-4-{[4-(dimethylamino)quinazolin-2-yl]amino}cyclohexyl)methyl]-N′-(4-fluorobenzyl)urea], with 2 (Class 2: The value of percent of control at 10^−7 M was from 40% to 60% or the value of IC50 was from 50 nM to 200 nM.); and `CCCCCCCOc1ccc(NC(=O)NC[C@H]2CC[C@@H](Nc3nc(N(C)C)c4ccccc4n3)CC2)cc1` [compound 554], with 3 (Class 3: The value of percent of control at 10^−7 M was more than 60% or the value of IC50 was more than 200 nM.).
In the case of `CN(C)c1nc(N[C@H]2CC[C@@H](CNC(=O)Nc3ccc(I)cc3)CC2)nc2ccccc12` [compound 555, N-[(cis-4-{[4-(dimethylamino)quinazolin-2-yl]amino}cyclohexyl)methyl]-N′-(4-iodophenyl)urea], the class is 2 (Class 2: The value of percent of control at 10^−7 M was from 40% to 60% or the value of IC50 was from 50 nM to 200 nM.).
The value for `COc1ccc(NC(=O)NC[C@H]2CC[C@@H](Nc3nc(N(C)C)c4ccccc4n3)CC2)c(C)c1` [compound 556] was 2 (Class 2: The value of percent of control at 10^−7 M was from 40% to 60% or the value of IC50 was from 50 nM to 200 nM.).
Then `COc1ccc(NC(=O)NC[C@H]2CC[C@@H](Nc3nc(N(C)C)c4ccccc4n3)CC2)c([N+](=O)[O-])c1` [compound 557], with 3 (Class 3: The value of percent of control at 10^−7 M was more than 60% or the value of IC50 was more than 200 nM.).
Then `Cc1ccc(NC(=O)NC[C@H]2CC[C@@H](Nc3nc(N(C)C)c4ccccc4n3)CC2)cc1[N+](=O)[O-]` [compound 558, N-[(cis-4-{[4-(dimethylamino)quinazolin-2-yl]amino}cyclohexyl)methyl]-N′-(4-methyl-3-nitrophenyl)urea], with 2 (Class 2: The value of percent of control at 10^−7 M was from 40% to 60% or the value of IC50 was from 50 nM to 200 nM.).
For the compound `Cc1ccc(CNC(=O)NC[C@H]2CC[C@@H](Nc3nc(N(C)C)c4ccccc4n3)CC2)cc1` [compound 559], the class is 3 (Class 3: The value of percent of control at 10^−7 M was more than 60% or the value of IC50 was more than 200 nM.).
`CCCCOc1ccc(NC(=O)NC[C@H]2CC[C@@H](Nc3nc(N(C)C)c4ccccc4n3)CC2)cc1` [compound 560]: the class is on record as 3 (Class 3: The value of percent of control at 10^−7 M was more than 60% or the value of IC50 was more than 200 nM.).
For the compound `CCCCc1ccc(NC(=O)NC[C@H]2CC[C@@H](Nc3nc(N(C)C)c4ccccc4n3)CC2)cc1` [compound 561], the class was 3 (Class 3: The value of percent of control at 10^−7 M was more than 60% or the value of IC50 was more than 200 nM.).
Then `CN(C)c1nc(N[C@H]2CC[C@@H](CNC(=O)Nc3ccc(-c4ccccc4)cc3)CC2)nc2ccccc12` [compound 562], with 3 (Class 3: The value of percent of control at 10^−7 M was more than 60% or the value of IC50 was more than 200 nM.); and `COc1cc(OC)c(NC(=O)NC[C@H]2CC[C@@H](Nc3nc(N(C)C)c4ccccc4n3)CC2)cc1Cl` [compound 563], with 3 (Class 3: The value of percent of control at 10^−7 M was more than 60% or the value of IC50 was more than 200 nM.); and `COc1ccc(Cl)cc1NC(=O)NC[C@H]1CC[C@@H](Nc2nc(N(C)C)c3ccccc3n2)CC1` [compound 564], with 3 (Class 3: The value of percent of control at 10^−7 M was more than 60% or the value of IC50 was more than 200 nM.).
Take `Cc1ccc(Cl)cc1NC(=O)NC[C@H]1CC[C@@H](Nc2nc(N(C)C)c3ccccc3n2)CC1` [compound 565]: the class is reported as 2 (Class 2: The value of percent of control at 10^−7 M was from 40% to 60% or the value of IC50 was from 50 nM to 200 nM.).
In the case of `CN(C)c1nc(N[C@H]2CC[C@@H](CNC(=O)Nc3cc(Cl)ccc3[N+](=O)[O-])CC2)nc2ccccc12` [compound 566], the class was 3 (Class 3: The value of percent of control at 10^−7 M was more than 60% or the value of IC50 was more than 200 nM.).
The value for `Cc1ccc(F)cc1NC(=O)NC[C@H]1CC[C@@H](Nc2nc(N(C)C)c3ccccc3n2)CC1` [compound 567, N-[(cis-4-{[4-(dimethylamino)quinazolin-2-yl]amino}cyclohexyl)methyl]-N′-(5-fluoro-2-methylphenyl)urea] was 2 (Class 2: The value of percent of control at 10^−7 M was from 40% to 60% or the value of IC50 was from 50 nM to 200 nM.); that for `CN(C)c1nc(N[C@H]2CC[C@@H](CNC(=O)Nc3ccc4c(c3)CCC4)CC2)nc2ccccc12` [compound 568] was 3 (Class 3: The value of percent of control at 10^−7 M was more than 60% or the value of IC50 was more than 200 nM.); that for `CN(C)c1nc(N[C@H]2CC[C@@H](CNC(=O)Nc3ccc4c(c3)Cc3ccccc3-4)CC2)nc2ccccc12` [compound 569] was 3 (Class 3: The value of percent of control at 10^−7 M was more than 60% or the value of IC50 was more than 200 nM.).
Regarding `CN(C)c1nc(N[C@H]2CC[C@@H](CNC(=O)NC3c4ccccc4-c4ccccc43)CC2)nc2ccccc12` [compound 570], the class was 3 (Class 3: The value of percent of control at 10^−7 M was more than 60% or the value of IC50 was more than 200 nM.).
For `CN(C)c1nc(N[C@H]2CC[C@@H](CNC(=O)NCCc3ccccc3)CC2)nc2ccccc12` [compound 571], the class is 3 (Class 3: The value of percent of control at 10^−7 M was more than 60% or the value of IC50 was more than 200 nM.).
Then `CN(C)c1nc(N[C@H]2CC[C@@H](CNC(=O)NC3CCCC3)CC2)nc2ccccc12` [compound 572, N-cyclopentyl-N′-[(cis-4-{[4-(dimethylamino)quinazolin-2-yl]amino}cyclohexyl)methyl]urea], with 2 (Class 2: The value of percent of control at 10^−7 M was from 40% to 60% or the value of IC50 was from 50 nM to 200 nM.).
On to `CN(C)c1nc(N[C@H]2CC[C@@H](CNC(=O)NC(c3ccccc3)c3ccccc3)CC2)nc2ccccc12` [compound 573, N-[(cis-4-{[4-(dimethylamino)quinazolin-2-yl]amino}cyclohexyl)methyl]-N′-(diphenylmethyl)urea], for which the class is listed as 1 (Class 1: The value of percent of control at 10^−7 M was less than 40% or the value of IC50 was less than 50 nM.).
Then `COC(=O)c1ccc(NC(=O)NC[C@H]2CC[C@@H](Nc3nc(N(C)C)c4ccccc4n3)CC2)cc1` [compound 574], with 3 (Class 3: The value of percent of control at 10^−7 M was more than 60% or the value of IC50 was more than 200 nM.); and `CN(C)c1nc(N[C@H]2CC[C@@H](CNC(=O)Nc3ccccc3OC(F)(F)F)CC2)nc2ccccc12` [compound 576], with 3 (Class 3: The value of percent of control at 10^−7 M was more than 60% or the value of IC50 was more than 200 nM.).
Regarding `CC(=O)c1cccc(NC(=S)NC[C@H]2CC[C@@H](Nc3nc(N(C)C)c4ccccc4n3)CC2)c1` [compound 577], the class was 3 (Class 3: The value of percent of control at 10^−7 M was more than 60% or the value of IC50 was more than 200 nM.).
